The nature of the data set: Stability in aqueous solution. It is filed as physicochemical. Particulars: aqueous solution of a pH value of 6 or above.

Consider `CO/N=C(\C(=O)N[C@@H]1C(=O)N2C(C(=O)OCOC(=O)C(C)(C)C)=C(/C=C\c3scnc3C)CS[C@H]12)c1csc(N)n1` [substance ME1207, pivaloyloxymethyl-(6R,7R)-7[(Z)-2-(2-aminothiazol-4-yl)-2-methoxyiminoacetamide]-3-[(Z)-2-(4-methylthiazol-5-yl)ethenyl]cephem-4-carboxylate], for which the “stability in an aqueous solution” value is on record as “unstable”.
